# Patent EP0854192A2, “Production of human cathepsin and its use” (Takeda Chemical Industries, Ltd., priority 1992, dated 1994)
# Where a SMILES comes first, the peptide text is derived from it. [ ]: non-standard residue; d: D form. The star is where a group is joined. Sta = CC(C)C[C@H](N)[C@@H](O)CC(=O)O; Isovaleryl = CC(C)CC(=O)*; Cbz = O=C(OCc1ccccc1)*; CHN2 = [N-]=[N+]=C*
# Target: human cathepsin L (recombinant, of human renal origin cDNA, expressed in COS-7 cells, concentrated culture supernatant) (Homo sapiens, UniProt P07711)
# Test: Cathepsin L enzyme activity assay with synthetic substrate Z-Phe-Arg-NMec in the presence of enzyme inhibitors (method of Barrett and Kirschke)
# Format: biochemical
# Conditions: 30°C, 10 minutes; for remaining activity at 1 µM: 1 µM inhibitor added after enzyme activation
# Procedure: The culture supernatant of COS-7 transformant prepared in Example 2 was concentrated about 20-fold with Centricut (produced by Kurabo Industries, Ltd., cut-off molecular weight = 10000) and assayed for cathepsin L enzyme activity, according to the method of A. J. Barrett and H. Kirschke [Methods in Enzymology 80, 535 (1981)]. To 25 µl of this concentrated culture supernatant were added 25 µl of 1 M sodium formate buffer (pH 3.0) and 10 µl of 0.1 M DTT, and water was added for a final volume of 250 µl, followed by incubation at 37°C for 30 seconds. After 125 µl of activating buffer (340 mM sodium acetate, 60 mM acetic acid, 4 mM EDTA disodium, pH 5.5) was added, the mixture was kept standing at 30°C for 1 minute for activation. The enzyme reaction was carried out at 30°C for 10 minutes in the presence of 125 µl of a synthetic substrate solution [20 µM Z-Phe-Arg-NMec (Z: benzyloxycarbonyl-, NMec: -7-(4-methyl)coumarylamide)], and stopped by the addition of 500 µl of a reaction stopper (100 mM sodium monochloroacetate, 30 mM sodium acetate, 70 mM acetic acid, pH 4.3). For a control experiment, a culture supernatant of COS-7 cells not expressing cathepsin L was used as an enzyme solution. After termination of the reaction, 100 µl of the reaction mixture was injected into a 96-well fluoroplate (produced by Labo Systems), and the fluorescence intensity of free 7-amino-4-methylcoumarin was determined at a wavelength of 450 nm (excitation wavelength = 365 nm) using a fluorometer FCA (produced by Baxter). In assessing the effects of the following enzyme inhibitors on the present enzyme activity, the inhibitor was added after the above enzyme activating operation. The enzyme inhibitors used were 10 µM leupeptin (cysteine protease inhibitor), 10 µM (p-amidinophenyl)methanesulfonyl fluoride hydrochloride (APMSF: serine protease inhibitor), 1 µM Z-Phe-Phe-CHN2 (cathepsin L inhibitor, -CHN2: -diazomethane) and 1 µM pepstatin A (aspartic acid protease inhibitor).
# [1] = read-out: enzyme activity in the presence of enzyme inhibitor, in comparison with the inhibitor-free control
# Sequence of human cathepsin L (recombinant, of human renal origin cDNA, expressed in COS-7 cells, concentrated culture supernatant) (P07711 114-333): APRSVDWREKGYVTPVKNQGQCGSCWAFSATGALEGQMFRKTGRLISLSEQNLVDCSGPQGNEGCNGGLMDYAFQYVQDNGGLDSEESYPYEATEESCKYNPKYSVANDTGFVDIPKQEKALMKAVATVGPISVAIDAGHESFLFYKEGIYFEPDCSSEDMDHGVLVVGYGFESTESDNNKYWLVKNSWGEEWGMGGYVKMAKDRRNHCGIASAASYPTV
remaining activity at 1 µM [1],SMILES,other results
,"Cl.N=C(N)c1ccc(CS(=O)(=O)F)cc1 [APMSF, (p-amidinophenyl)methanesulfonyl fluoride hydrochloride]","enzyme activity in the presence of enzyme inhibitor, in comparison with the inhibitor-free control (10 µM inhibitor added after enzyme activation, remaining activity): 79%"
6.3%,[N-]=[N+]=CC(=O)[C@H](Cc1ccccc1)NC(=O)[C@H](Cc1ccccc1)NC(=O)OCc1ccccc1 [Z-Phe-Phe-CHN2] (Cbz-Phe-Phe-CHN2),
,CC(=O)N[C@@H](CC(C)C)C(=O)N[C@@H](CC(C)C)C(=O)N[C@H](C=O)CCCNC(=N)N [leupeptin],"remaining activity at 10 µM (10 µM inhibitor added after enzyme activation, read-out: enzyme activity in the presence of enzyme inhibitor, in comparison with the inhibitor-free control): 3.4%"
99%,CC(C)CC(=O)N[C@H](C(=O)N[C@H](C(=O)N[C@@H](CC(C)C)[C@@H](O)CC(=O)N[C@@H](C)C(=O)N[C@@H](CC(C)C)[C@@H](O)CC(=O)O)C(C)C)C(C)C [pepstatin A] (Isovaleryl-VV[Sta]A[Sta]-OH),
